Experimental data published in patent US10479780B2, “Aminopyrazole derivatives” (Chugai Seiyaku Kabushiki Kaisha, priority 2015, dated 2019).

Legend:
Format in all cases: biochemical
human Yes1 enzyme = biological target: T1, human Yes1 enzyme (Homo sapiens, UniProt P07947); assay: Yes1 enzyme inhibitory activity (time-resolved fluorometry, biotinylated peptide phosphorylation); conditions: biotinylated peptide phosphorylation, read-out: YES_IC50
T1 construct: made in house
Outline: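 Inhibition was expressed against a compound-free control to give IC50, using TR-FRET read-out (Eu-cryptate anti-pTyr antibody, streptavidin-XL665).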

human Src enzyme = biological target: T2, human Src enzyme (Homo sapiens, UniProt P12931); assay: Src enzyme inhibitory activity (time-resolved fluorometry, biotinylated peptide phosphorylation); conditions: biotinylated peptide phosphorylation, read-out: SRC_IC50
T2 construct: purchased Carna Biosciences, Inc. 08-173
T2 sequence (P12931 whole entry): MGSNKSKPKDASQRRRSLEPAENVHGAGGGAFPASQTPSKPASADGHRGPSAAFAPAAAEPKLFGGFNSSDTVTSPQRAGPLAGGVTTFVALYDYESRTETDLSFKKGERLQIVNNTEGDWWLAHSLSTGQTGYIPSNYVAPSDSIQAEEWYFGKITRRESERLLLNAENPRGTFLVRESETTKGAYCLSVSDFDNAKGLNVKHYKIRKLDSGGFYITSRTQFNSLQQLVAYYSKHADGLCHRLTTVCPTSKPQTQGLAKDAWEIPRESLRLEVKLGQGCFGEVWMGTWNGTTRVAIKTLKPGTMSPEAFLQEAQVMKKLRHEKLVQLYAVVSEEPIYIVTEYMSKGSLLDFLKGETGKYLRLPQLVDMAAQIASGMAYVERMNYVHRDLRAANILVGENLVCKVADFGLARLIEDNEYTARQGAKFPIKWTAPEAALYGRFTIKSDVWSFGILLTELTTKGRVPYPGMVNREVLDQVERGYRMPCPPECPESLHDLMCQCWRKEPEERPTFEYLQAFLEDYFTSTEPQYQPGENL
Outline: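 Compounds were tested for blocking tyrosine phosphorylation of a biotinylated peptide substrate by recombinant human Src. Phosphorylated product was quantified by time-resolved fluorometry using europium cryptate and XL665 conjugates, and IC50 was calculated against the compound-free control.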

human Lck enzyme = biological target: T3, human Lck enzyme (Homo sapiens, UniProt P06239); assay: Lck enzyme inhibitory activity (time-resolved fluorometry, biotinylated peptide phosphorylation); conditions: biotinylated peptide phosphorylation, read-out: LCK_IC50
T3 construct: purchased Carna Biosciences, Inc. 08-170
T3 sequence (P06239 whole entry): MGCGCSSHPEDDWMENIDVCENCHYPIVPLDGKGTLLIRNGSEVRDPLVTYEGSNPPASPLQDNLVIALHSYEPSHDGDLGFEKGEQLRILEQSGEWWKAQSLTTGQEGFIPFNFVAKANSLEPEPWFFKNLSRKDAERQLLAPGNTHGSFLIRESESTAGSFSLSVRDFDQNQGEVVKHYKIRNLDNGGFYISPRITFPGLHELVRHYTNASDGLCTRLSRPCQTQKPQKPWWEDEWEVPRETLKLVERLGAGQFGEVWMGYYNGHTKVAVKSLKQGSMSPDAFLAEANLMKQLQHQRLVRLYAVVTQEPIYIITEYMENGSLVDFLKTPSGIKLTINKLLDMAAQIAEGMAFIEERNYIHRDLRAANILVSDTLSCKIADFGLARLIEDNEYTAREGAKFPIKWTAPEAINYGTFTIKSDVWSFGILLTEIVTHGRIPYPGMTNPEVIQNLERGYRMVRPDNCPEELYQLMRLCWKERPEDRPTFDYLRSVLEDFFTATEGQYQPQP
Outline: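 Readout pairs a europium cryptate-labelled anti-phosphotyrosine antibody with XL665-streptavidin, measured by time-resolved fluorescence. IC50 derived from percent inhibition against untreated controls.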

T1 sequence (P07947 whole entry): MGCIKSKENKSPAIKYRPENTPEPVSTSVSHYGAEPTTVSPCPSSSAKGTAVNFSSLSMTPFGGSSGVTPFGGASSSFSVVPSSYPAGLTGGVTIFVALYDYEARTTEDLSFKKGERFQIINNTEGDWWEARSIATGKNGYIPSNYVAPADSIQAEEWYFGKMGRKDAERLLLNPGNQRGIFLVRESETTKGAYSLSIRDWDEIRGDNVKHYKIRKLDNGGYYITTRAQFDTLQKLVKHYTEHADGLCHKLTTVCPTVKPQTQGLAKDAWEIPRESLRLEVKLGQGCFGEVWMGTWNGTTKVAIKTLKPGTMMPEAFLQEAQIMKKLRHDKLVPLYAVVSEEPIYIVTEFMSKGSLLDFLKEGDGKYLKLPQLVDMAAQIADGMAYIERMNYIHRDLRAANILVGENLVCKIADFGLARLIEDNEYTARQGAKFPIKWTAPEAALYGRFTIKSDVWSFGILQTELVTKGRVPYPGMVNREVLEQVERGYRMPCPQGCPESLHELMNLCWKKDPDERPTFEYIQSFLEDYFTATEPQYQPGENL

Row | IC50 (human Yes1 enzyme) | IC50 (human Src enzyme) | IC50 (human Lck enzyme) | Structure (SMILES)
1 | 4.8 nM | 280 nM | 77 nM | Cc1cc2cc(C(=O)c3cnn(-c4cnc(Oc5ccccc5F)cc4C)c3N)[nH]c2cc1NS(=O)(=O)c1cc(C#N)ccn1 [Example 5-1-478, N-[2-[5-amino-1-[6-(2-fluorophenoxy)-4-methylpyridin-3-yl]pyrazole-4-carbonyl]-5-methyl-1H-indol-6-yl]-4-cyanopyridine-2-sulfonainide]
2 | 3.3 nM | 770 nM | 170 nM | Cc1cc2cc(C(=O)c3cnn(-c4cnc(Oc5ccccc5F)cc4C)c3N)[nH]c2cc1NS(=O)(=O)c1cccc(C#N)n1 [Example 5-1-479, N-[2-[5-amino-1-[6-(2-fluorophenoxy)-4-methylpyridin-3-yl]pyrazole-4-carbonyl]-5-methyl-1H-indol-6-yl]-6-cyanopyridine-2-sulfonamide]
3 | 6.4 nM | 400 nM | 100 nM | Cc1cc2cc(C(=O)c3cnn(-c4cnc(Oc5ccccc5F)cc4C)c3N)[nH]c2cc1NS(=O)(=O)c1cncc(C#N)c1 [Example 5-1-480, N-[2-[5-amino-1-[6-(2-fluorophenoxy)-4-methylpyridin-3-yl]pyrazole-4-carbonyl]-5-methyl-1H-indol-6-yl]-5-cyanopyridine-3-sulfonamide]
4 | 5.4 nM | 450 nM | 110 nM | Cc1cc(C#N)cc(S(=O)(=O)Nc2cc3[nH]c(C(=O)c4cnn(-c5cnc(Oc6ccccc6F)cc5C)c4N)cc3cc2C)n1 [Example 5-1-481, N-[2-[5-amino-1-[6-(2-fluorophenoxy)-4-methylpyridin-3-yl]pyrazole-4-carbonyl]-5-methyl-1H-indol-6-yl]-4-cyano-6-methylpyridine-2-sulfonamide]
5 | 6.7 nM | 710 nM | 250 nM | COc1cccc(S(=O)(=O)Nc2cc3[nH]c(C(=O)c4cnn(-c5cnc(Oc6ccccc6F)cc5C)c4N)cc3cc2C)n1 [Example 5-1-483, N-[2-[5-amino-1-[6-(2-fluorophenoxy)-4-methylpyridin-3-yl]pyrazole-4-carbonyl]-5-methyl-1H-indol-6-yl]-6-methoxypyridine-2-sulfonamide]
6 | 7.3 nM | 620 nM | 160 nM | Cc1cc2cc(C(=O)c3cnn(-c4cnc(Oc5ccccc5F)cc4C)c3N)[nH]c2cc1NS(=O)(=O)c1cccc(C(F)(F)F)n1 [Example 5-1-486, N-[2-[5-amino-1-[6-(2-fluorophenoxy)-4-methylpyridin-3-yl]pyrazole-4-carbonyl]-5-methyl-1H-indol-6-yl]-6-(trifluoromethyl) pyridine-2-sulfonamide]
7 | 5.7 nM | 750 nM | 200 nM | Cc1cc2cc(C(=O)c3cnn(-c4cnc(Oc5ccccc5F)cc4C)c3N)[nH]c2cc1NS(=O)(=O)c1cccc(F)c1 [Example 5-1-500, N-[2-[5-amino-1-[6-(2-fluorophenoxy)-4-methylpyridin-3-yl]pyrazole-4-carbonyl]-5-methyl-1H-indol-6-yl]-3-fluorobenzenesulfonamide]

Second part, the compound before the results:

Row | Structure (SMILES) | IC50 (human Yes1 enzyme) | IC50 (human Src enzyme) | IC50 (human Lck enzyme)
8 | COc1ccnc(S(=O)(=O)Nc2cc3[nH]c(C(=O)c4cnn(-c5cnc(Oc6ccccc6F)cc5C)c4N)cc3cc2C)c1 [Example 5-1-482, N-[2-[5-amino-1-[6-(2-fluorophenoxy)-4-methylpyridin-3-yl]pyrazole-4-carbonyl]-5-methyl-1H-indol-6-yl]-4-methoxypyridine-2-sulfonamide] | 6.3 nM | 480 nM | 140 nM
9 | COc1cncc(S(=O)(=O)Nc2cc3[nH]c(C(=O)c4cnn(-c5cnc(Oc6ccccc6F)cc5C)c4N)cc3cc2C)c1 [Example 5-1-484, N-[2-[5-amino-1-[6-(2-fluorophenoxy)-4-methylpyridin-3-yl]pyrazole-4-carbonyl]-5-methyl-1H-indol-6-yl]-5-methoxypyridine-3-sulfonamide] | 6.9 nM | 570 nM | 140 nM
10 | Cc1cc2cc(C(=O)c3cnn(-c4cnc(Oc5ccccc5F)cc4C)c3N)[nH]c2cc1NS(=O)(=O)c1cc(C(F)(F)F)ccn1 [Example 5-1-485, N-[2-[5-amino-1-[6-(2-fluorophenoxy)-4-methylpyridin-3-yl]pyrazole-4-carbonyl]-5-methyl-1H-indol-6-yl]-4-(trifluoromethyl) pyridine-2-sulfonamide] | 6.8 nM | 520 nM | 110 nM
11 | Cc1cc2cc(C(=O)c3cnn(-c4cnc(Oc5ccccc5F)cc4C)c3N)[nH]c2cc1NS(=O)(=O)c1cncc(C(F)(F)F)c1 [Example 5-1-487, N-[2-[5-amino-1-[6-(2-fluorophenoxy)-4-methylpyridin-3-yl]pyrazole-4-carbonyl]-5-methyl-1H-indol-6-yl]-5-(trifluoromethyl) pyridine-3-sulfonamide] | 11 nM | 510 nM | 110 nM
12 | Cc1cncc(S(=O)(=O)Nc2cc3[nH]c(C(=O)c4cnn(-c5cnc(Oc6ccccc6F)cc5C)c4N)cc3cc2C)c1 [Example 5-1-488, N-[2-[5-amino-1-[6-(2-fluorophenoxy)-4-methylpyridin-3-yl]pyrazole-4-carbonyl]-5-methyl-1H-indol-6-yl]-5-methylpyridine-3-sulfonamide] | 4.2 nM | 520 nM | 120 nM
13 | Cc1cc(Oc2ccccc2F)ccc1-n1ncc(C(=O)c2cc3cc(F)c(NS(=O)(=O)c4cccnc4)cc3[nH]2)c1N [Example 5-1-489, N-[2-[5-amino-1-[4-(2-fluorophenoxy)-2-methylphenyl]pyrazole-4-carbonyl]-5-fluoro-1H-indol-6-yl]pyridine-3-sulfonamide] | 1.9 nM | 190 nM | 49 nM
14 | Cc1cc(Oc2ccccc2F)ccc1-n1ncc(C(=O)c2cc3cc(F)c(NS(=O)(=O)c4cccc(C#N)c4)cc3[nH]2)c1N [Example 5-1-490, N-[2-[5-amino-1-[4-(2-fluorophenoxy)-2-methylphenyl]pyrazole-4-carbonyl]-5-fluoro-1H-indol-6-yl]-3-cyanobenzenesulfonamide] | 3.7 nM | 430 nM | 110 nM
15 | Cc1cc(Oc2c(F)cccc2F)ncc1-n1ncc(C(=O)c2cc3cc(F)c(NS(=O)(=O)c4cccnc4)cc3[nH]2)c1N [Example 5-1-491, N-[2-[5-amino-1-[6-(2,6-difluorophenoxy)-4-methylpyridin-3-yl]pyrazole-4-carbonyl]-5-fluoro-1H-indol-6-yl]pyridine-3-sulfonamide] | 4.9 nM | 400 nM | 100 nM
16 | Cc1cc(Oc2c(F)cccc2F)ncc1-n1ncc(C(=O)c2cc3cc(F)c(NS(=O)(=O)c4cccc(C#N)c4)cc3[nH]2)c1N [Example 5-1-492, N-[2-[5-amino-1-[6-(2,6-difluorophenoxy)-4-methylpyridin-3-yl]pyrazole-4-carbonyl]-5-fluoro-1H-indol-6-yl]-3-cyanobenzenesulfonamide] | 8 nM | 760 nM | 150 nM
17 | Cc1cc2cc(C(=O)c3cnn(-c4cnc(Oc5ccccc5F)cc4C)c3N)[nH]c2cc1NS(=O)(=O)c1cncc(F)c1 [Example 5-1-494, N-[2-[5-amino-1-[6-(2-fluorophenoxy)-4-methylpyridin-3-yl]pyrazole-4-carbonyl]-5-methyl-1H-indol-6-yl]-5-fluoropyridine-3-sulfonamide] | 3 nM | 430 nM | 230 nM
18 | Cc1cc2cc(C(=O)c3cnn(-c4cnc(Oc5ccccc5F)cc4C)c3N)[nH]c2cc1NS(=O)(=O)c1cncc(Cl)c1 [Example 5-1-495, N-[2-[5-amino-1-[6-(2-fluorophenoxy)-4-methylpyridin-3-yl]pyrazole-4-carbonyl]-5-methyl-1H-indol-6-yl]-5-chloropyridine-3-sulfonamide] | 3.9 nM | 550 nM | 360 nM
19 | COc1cc(F)cc(S(=O)(=O)Nc2cc3[nH]c(C(=O)c4cnn(-c5cnc(Oc6ccccc6F)cc5C)c4N)cc3cc2C)c1 [Example 5-1-496, N-[2-[5-amino-1-[6-(2-fluorophenoxy)-4-methylpyridin-3-yl]pyrazole-4-carbonyl]-5-methyl-1H-indol-6-yl]-3-fluoro-5-methoxybenzenesulfonamide] | 11 nM | 1300 nM | 630 nM
20 | Cc1cc2cc(C(=O)c3cnn(-c4cnc(Oc5ccccc5F)cc4C)c3N)[nH]c2cc1NS(=O)(=O)c1cc(F)cc(C#N)c1 [Example 5-1-497, N-[2-[5-amino-1-[6-(2-fluorophenoxy)-4-methylpyridin-3-yl]pyrazole-4-carbonyl]-5-methyl-1H-indol-6-yl]-3-cyano-5-fluorobenzenesulfonamide] | 4.7 nM | 660 nM | 170 nM
21 | Cc1cc2cc(C(=O)c3cnn(-c4cnc(Oc5ccccc5F)cc4C)c3N)[nH]c2cc1NS(=O)(=O)c1cc(Cl)cc(C#N)c1 [Example 5-1-498, N-[2-[5-amino-1-[6-(2-fluorophenoxy)-4-methylpyridin-3-yl]pyrazole-4-carbonyl]-5-methyl-1H-indol-6-yl]-3-chloro-5-cyanobenzenesulfonamide] | 8.7 nM | 1600 nM | 420 nM
22 | Cc1cc2cc(C(=O)c3cnn(-c4cnc(Oc5ccccc5F)cc4C)c3N)[nH]c2cc1NS(=O)(=O)c1cc(C#N)cc(C(F)(F)F)c1 [Example 5-1-499, N-[2-[5-amino-1-[6-(2-fluorophenoxy)-4-methylpyridin-3-yl]pyrazole-4-carbonyl]-5-methyl-1H-indol-6-yl]-3-cyano-5-(trifluoromethyl)benzenesulfonamide] | 16 nM | 1800 nM | 550 nM
